What was measured:
cathepsin L = assay: Generation of dynamin p40 fragment in LPS-treated cultured podocytes (Western blot); assay type: cell-based, mouse; conditions: LPS-treated podocytes expressing dynWT
Text: Next, it was examined whether cathepsin L could process dynamin in vivo, and whether this processing required GTP binding by dynamin. To this end, cultured podocytes were infected with adenoviruses expressing dynWT as well as different dynamin mutants. Infected podocytes were subsequently treated with LPS. LPS treatment increases cathepsin L presence and the activity in the cytosol (FIG. 3), and thus is expected to induce generation of the 40 kD proteolytic fragment. Respective cytosols were probed using the GTPase antibodies in order to detect N-terminal 40 kD proteolytic fragment. Expression of dynWT in podocytes treated with LPS identified proteolytic fragments that traveled with the same mobility as fragments observed in vitro. […] Furthermore, significant amount of p40 was present in cells expressing dynR725A prior to LPS treatment. […] Given complete protection of cathepsin L cleavage by GTPγS, it was reasoned that LPS treatment was somehow inducing dynR725A self-assembly, which in turn was protecting dynR725A from cathepsin L cleavage. This in turn would explain ability of dynR725A to counteract LPS and PAN treatment (FIG. 1D). […] Biochemical difference between dynWT, dynK694A and dynR725A is that only dynR725A is impaired in the rate of GTP-hydrolysis of assembled dynamin. This is important because GTP-hydrolysis drives disassemble of dynamin. Thus, while all three dynamins are predicted to self-assemble by LPS treatment, only dynR725A will stay assembled due to its inability to hydrolyze GTP. Once assembled dynWT and dynK694A hydrolyze GTP they will fall apart and thus become accessible for cathepsin L cleavage.
To explore CatL-mediated dynamin cleavage in vivo, cultured podocytes were infected with adenoviruses encoding different dynamin mutants and subsequently treated with LPS (FIG. 19G). […] To confirm the identity of the cleavage site, the ELSGGA (SEQ ID NO.29) sequence was mutated to EQSVGA (SEQ ID NO.31) (for simplicity, the mutant is subsequently referred to as dynL356Q). […] Finally, a GTPase-defective dynamin mutant was examined. Dynamin carrying a mutation in its […] (dynR725A) oligomerizes, but is impaired in assembly-stimulated GTP-hydrolysis. DynR725A is therefore predicted to live longer in the assembled state.
Podocytes were grown under non-permissive conditions to 70% confluence. Cells were washed twice with 1×PBS and infected with 1.2 ml of serum-free DMEM media containing 100 μl transactivator virus, 100 μl virus expressing dyn1 or dyn2. After 2 h of infection at 37° C., media containing virus was replaced with full DMEM. If cells were treated with LPS or PAN, 50 μg/ml of LPS or 50 μg/ml PAN was added at this point. 18-24 h post-infection, cells were detached using trypsin and processed either for subcellular fractionation or tested in the motility assays as described in (Reiser et al., J Biol Chem 279, 34827-34832 (2004)). When stated, 20 μM of Z-FF-FMK CatL specific inhibitor (Calbiochem, San Diego, Calif.) was added simultaneously with addition of LPS.

[1] = system: CatL-mediated degradation of synaptopodin; assay: Western blot of isolated glomeruli, LPS-induced degradation of synaptopodin and RhoA; assay type: in vivo, mouse; conditions: FIG. 29B
Text: FIG. 29A: SDS-PAGE analysis of urines from control and LPS-injected mice (top). Quantitative analysis of albuminuria (bottom). FIG. 29B: Western blot analysis of isolated glomeruli showing that LPS causes the degradation of endogenous synaptopodin and RhoA.

LPS-induced proteinuria = LPS-induced proteinuria in mice treated with inhibitors, albuminuria by gel quantification; assay type: in vivo, mouse; conditions: FIG. 29A
Description: Proteinuria was induced in male B6 mice (n=5 per group) by LPS injection. The mice were injected the mice with 250 μg ultrapure LPS (InvivoGen) intraperitoneally (i.p.) and started treatment with 200 μg cathepsin L inhibitor VI (Calbiochem) 30 min after disease induction. The LPS and inhibitor injections were repeated at 24 h and the mice were sacrificed at 48 h.
To quantify the level of proteinuria, urine was diluted with double-distilled water, boiled the diluted urine in sample buffer and analyzed the samples by NuPAGE (Invitrogen) followed by Coomassie blue staining BSA standards (from 0.125 to 2.0 μg) were run on the same gel and were used to identify and quantify urinary albumin bands. The albumin bands were quantified with ImageJ software (NIH) and determined the creatinine abundance from the same urine samples with a commercial kit (Cayman Chemical) according to the manufacturer's protocol.

With `CC(C)C[C@H](NC(=O)[C@H]1O[C@@H]1C(=O)O)C(=O)NCCCCN=C(N)N` [E64] the “dynamin cleavage / p40 generation with inhibitor, in words” value (cathepsin L) was “cleavage could be blocked”, the “LPS-induced degradation of synaptopodin and RhoA, in words” value [1] was “block the LPS-induced degradation of synaptopodin and RhoA” and the “LPS-induced proteinuria (albuminuria), in words” value (LPS-induced proteinuria) was “ameliorate LPS-induced proteinuria”.
